In brackets after ≈: the same amount, converted by molar mass. Like-named read-outs stand apart in the source and are kept apart here.
What was measured:
[1] = Solubility experiments (approximate solubility by solvent aliquot addition); type: physicochemical; conditions: thermodynamic from solid
Protocol: Approximately 20 mg of Form A of Compound (1) was placed in each of 48 vials and 5 volume aliquots of the appropriate solvent systems were added to the appropriate vial. Between each addition, the mixture was checked for dissolution and if no dissolution was apparent, the mixture was warmed to ca. 50° C. and checked again. This procedure was continued until dissolution was observed or until 100 volumes of solvent had been added.

[2] = Dynamic Vapour Sorption (DVS) with XRPD re-analysis; type: physicochemical
Protocol: Dynamic Vapour Sorption (DVS) was performed on a DVS-1 dynamic vapour sorption balance by Surface Measurement Systems. Approximately 10-20 mg of sample was loaded into a wire mesh vapour sorption balance pan of the balance. The sample was subjected to a ramping profile from 20-90% relative humidity (RH) in 10% increments, maintaining the sample at each step until a stable weight had been achieved (99.5% step completion) or 1000 minutes had elapsed. After completion of the sorption cycle, the sample was dried using the same procedure, but all the way down to 0% RH and finally taken back to the starting point of 20% RH. The weight change during the sorption/desorption cycles were plotted, allowing for the hygroscopic nature of the sample to be determined. Following the DVS analysis, the solid was re-analysed by XRPD in order to determine whether there had been any change in physical form.

O=C(O)CNC(=O)c1ncc(-c2cccc(Cl)c2)cc1O [Form A of Compound (I), {[5-(3-chlorophenyl)-3-hydroxypyridine-2-carbonyl]amino}acetic acid]
solubility ([1]; organic solvent or mixture, Solvent: Diisopropyl ether (DIPE), ca. 50° C., read-out: Solubility (mg/mL) (ca. 50° C.)): < 10 mg/mL
solubility ([1]; organic solvent or mixture, Solvent: Dimethyl sulfoxide (DMSO), RT (ca. 22° C.), read-out: Solubility (mg/mL) RT (ca. 22° C.)): > 200 mg/mL
solubility ([1]; organic solvent or mixture, Solvent: Dimethyl sulfoxide (DMSO), ca. 50° C., read-out: Solubility (mg/mL) (ca. 50° C.)): > 200 mg/mL
solubility ([1]; organic solvent or mixture, Solvent: Dimethylacetamide (DMA), RT (ca. 22° C.), read-out: Solubility (mg/mL) RT (ca. 22° C.)): > 200 mg/mL
solubility ([1]; organic solvent or mixture, Solvent: Dimethylacetamide (DMA), ca. 50° C., read-out: Solubility (mg/mL) (ca. 50° C.)): > 200 mg/mL
solubility ([1]; organic solvent or mixture, Solvent: Dimethylformamide (DMF), RT (ca. 22° C.), read-out: Solubility (mg/mL) RT (ca. 22° C.)): > 200 mg/mL
solubility ([1]; organic solvent or mixture, Solvent: Dimethylformamide (DMF), ca. 50° C., read-out: Solubility (mg/mL) (ca. 50° C.)): > 200 mg/mL
solubility ([1]; organic solvent or mixture, Solvent: EtOAc/Cyclohexane (1:2), ca. 50° C., read-out: Solubility (mg/mL) (ca. 50° C.)): < 10 mg/mL
solubility ([1]; organic solvent or mixture, Solvent: EtOAc/Toluene (1:2), RT (ca. 22° C.), read-out: Solubility (mg/mL) RT (ca. 22° C.)): < 14 mg/mL
solubility ([1]; organic solvent or mixture, Solvent: EtOAc/Toluene (1:2), ca. 50° C., read-out: Solubility (mg/mL) (ca. 50° C.)): 14 mg/mL (≈ 45.6 mM)
solubility ([1]; organic solvent or mixture, Solvent: Ethanol (EtOH), RT (ca. 22° C.), read-out: Solubility (mg/mL) RT (ca. 22° C.)): 34 mg/mL (≈ 111 mM)
solubility ([1]; organic solvent or mixture, Solvent: Ethanol (EtOH), ca. 50° C., read-out: Solubility (mg/mL) (ca. 50° C.)): > 34 mg/mL
solubility ([1]; organic solvent or mixture, Solvent: Ethyl acetate (EtOAc), RT (ca. 22° C.), read-out: Solubility (mg/mL) RT (ca. 22° C.)): < 41 mg/mL
solubility ([1]; organic solvent or mixture, Solvent: Ethyl acetate (EtOAc), ca. 50° C., read-out: Solubility (mg/mL) (ca. 50° C.)): 41 mg/mL (≈ 134 mM)
solubility ([1]; organic solvent or mixture, Solvent: Ethylene glycol, RT (ca. 22° C.), read-out: Solubility (mg/mL) RT (ca. 22° C.)): < 10 mg/mL
solubility ([1]; organic solvent or mixture, Solvent: Ethylene glycol, ca. 50° C., read-out: Solubility (mg/mL) (ca. 50° C.)): < 10 mg/mL
solubility ([1]; organic solvent or mixture, Solvent: Heptane, RT (ca. 22° C.), read-out: Solubility (mg/mL) RT (ca. 22° C.)): < 10 mg/mL
solubility ([1]; organic solvent or mixture, Solvent: Heptane, ca. 50° C., read-out: Solubility (mg/mL) (ca. 50° C.)): < 10 mg/mL
solubility ([1]; organic solvent or mixture, Solvent: Isobutyl acetate (iBuOAc), RT (ca. 22° C.), read-out: Solubility (mg/mL) RT (ca. 22° C.)): < 20 mg/mL
solubility ([1]; organic solvent or mixture, Solvent: Isobutyl acetate (iBuOAc), ca. 50° C., read-out: Solubility (mg/mL) (ca. 50° C.)): 20 mg/mL (≈ 65.2 mM)
solubility ([1]; organic solvent or mixture, Solvent: Isopropyl acetate (iPrOAc), RT (ca. 22° C.), read-out: Solubility (mg/mL) RT (ca. 22° C.)): < 26 mg/mL
solubility ([1]; organic solvent or mixture, Solvent: Isopropyl acetate (iPrOAc), ca. 50° C., read-out: Solubility (mg/mL) (ca. 50° C.)): 26 mg/mL (≈ 84.8 mM)
solubility ([1]; organic solvent or mixture, Solvent: MeOH/Water (1%), RT (ca. 22° C.), read-out: Solubility (mg/mL) RT (ca. 22° C.)): < 40 mg/mL
solubility ([1]; organic solvent or mixture, Solvent: MeOH/Water (1%), ca. 50° C., read-out: Solubility (mg/mL) (ca. 50° C.)): 40 mg/mL (≈ 130 mM)
solubility ([1]; organic solvent or mixture, Solvent: MeOH/Water (20%), RT (ca. 22° C.), read-out: Solubility (mg/mL) RT (ca. 22° C.)): < 10 mg/mL
solubility ([1]; organic solvent or mixture, Solvent: Methanol (MeOH), RT (ca. 22° C.), read-out: Solubility (mg/mL) RT (ca. 22° C.)): < 51 mg/mL
solubility ([1]; organic solvent or mixture, Solvent: Methanol (MeOH), ca. 50° C., read-out: Solubility (mg/mL) (ca. 50° C.)): 51 mg/mL (≈ 166 mM)
solubility ([1]; organic solvent or mixture, Solvent: Methyl acetate (MeOAc), RT (ca. 22° C.), read-out: Solubility (mg/mL) RT (ca. 22° C.)): < 68 mg/mL
solubility ([1]; organic solvent or mixture, Solvent: Methyl acetate (MeOAc), ca. 50° C., read-out: Solubility (mg/mL) (ca. 50° C.)): 68 mg/mL (≈ 222 mM)
solubility ([1]; organic solvent or mixture, Solvent: Methyl ethyl ketone (MEK), RT (ca. 22° C.), read-out: Solubility (mg/mL) RT (ca. 22° C.)): < 100 mg/mL
solubility ([1]; organic solvent or mixture, Solvent: Methyl ethyl ketone (MEK), ca. 50° C., read-out: Solubility (mg/mL) (ca. 50° C.)): 100 mg/mL (≈ 326 mM)
solubility ([1]; organic solvent or mixture, Solvent: Methyl isobutyl ketone (MIBK), RT (ca. 22° C.), read-out: Solubility (mg/mL) RT (ca. 22° C.)): < 34 mg/mL
solubility ([1]; organic solvent or mixture, Solvent: Methyl isobutyl ketone (MIBK), ca. 50° C., read-out: Solubility (mg/mL) (ca. 50° C.)): 34 mg/mL (≈ 111 mM)
solubility ([1]; organic solvent or mixture, Solvent: N-methyl-2-pyrrolidone (NMP), RT (ca. 22° C.), read-out: Solubility (mg/mL) RT (ca. 22° C.)): > 200 mg/mL
solubility ([1]; organic solvent or mixture, Solvent: N-methyl-2-pyrrolidone (NMP), ca. 50° C., read-out: Solubility (mg/mL) (ca. 50° C.)): > 200 mg/mL
solubility ([1]; organic solvent or mixture, Solvent: Nitromethane, RT (ca. 22° C.), read-out: Solubility (mg/mL) RT (ca. 22° C.)): < 10 mg/mL
solubility ([1]; organic solvent or mixture, Solvent: Nitromethane, ca. 50° C., read-out: Solubility (mg/mL) (ca. 50° C.)): < 10 mg/mL
solubility ([1]; organic solvent or mixture, Solvent: Tetrahydrofuran (THF), RT (ca. 22° C.), read-out: Solubility (mg/mL) RT (ca. 22° C.)): > 200 mg/mL
solubility ([1]; organic solvent or mixture, Solvent: Tetrahydrofuran (THF), ca. 50° C., read-out: Solubility (mg/mL) (ca. 50° C.)): > 200 mg/mL
solubility ([1]; organic solvent or mixture, Solvent: Toluene, RT (ca. 22° C.), read-out: Solubility (mg/mL) RT (ca. 22° C.)): < 10 mg/mL
solubility ([1]; organic solvent or mixture, Solvent: Toluene, ca. 50° C., read-out: Solubility (mg/mL) (ca. 50° C.)): < 10 mg/mL
solubility ([1]; organic solvent or mixture, Solvent: Trifluoroethanol (TFE), RT (ca. 22° C.), read-out: Solubility (mg/mL) RT (ca. 22° C.)): < 10 mg/mL
solubility ([1]; organic solvent or mixture, Solvent: Trifluoroethanol (TFE), ca. 50° C., read-out: Solubility (mg/mL) (ca. 50° C.)): < 10 mg/mL
solubility ([1]; organic solvent or mixture, Solvent: methyl tert-butyl ether (MTBE), RT (ca. 22° C.), read-out: Solubility (mg/mL) RT (ca. 22° C.)): 14 mg/mL (≈ 45.6 mM)
solubility ([1]; organic solvent or mixture, Solvent: methyl tert-butyl ether (MTBE), ca. 50° C., read-out: Solubility (mg/mL) (ca. 50° C.)): > 14 mg/mL
solubility ([1]; Solvent: Water, RT (ca. 22° C.), read-out: Solubility (mg/mL) RT (ca. 22° C.)): < 10 mg/mL
solubility ([1]; Solvent: Water, ca. 50° C., read-out: Solubility (mg/mL) (ca. 50° C.)): < 10 mg/mL
water sorption at 90% RH ([2]; DVS, 90% RH): 0.13%
XRPD analysis following DVS (change in physical form) ([2]; after DVS sorption/desorption cycle): no change in form
hygroscopicity (DVS) ([2]; judged from water sorption at 90% RH): non-hygroscopic

— patent US12419877B2, “Solid forms of {[5-(3-chlorophenyl)-3-hydroxypyridine-2-carbonyl]amino}acetic acid, compositions, and uses thereof” (Akebia Therapeutics, Inc., priority 2013, dated 2025)
